Among the data in article PMC8286840, “Identifying SARS-CoV-2 antiviral compounds by screening for small molecule inhibitors of Nsp3 papain-like protease” (Biochemical Journal, 2021) are remaining activity values, retold here.

The target of test [1] is T1, SARS-CoV-2 PLpro (nsp3 1564–1878) (Severe acute respiratory syndrome coronavirus 2, UniProt P0DTD1). As to the kind of experiment: biochemical. Details: FRET-quenched peptide (Pro3) cleavage by PLpro, 10 min pre-incubation, slope over 20 min, normalised to no-compound control. Conditions: low concentration screen, read-out: % of control remaining.
Test [2] addresses T1, SARS-CoV-2 PLpro (nsp3 1564–1878). The test can be described thus: biochemical. Conditions: high concentration screen, read-out: % of control remaining. Set-up: FRET-quenched peptide (Pro3) cleavage by PLpro, 10 min pre-incubation, slope over 20 min, normalised to no-compound control.

Structures are written as SMILES. Where a name gives a salt, the structure may show the parent alone. Read-outs that look alike come from different tables or passages of the source.

Regarding `COC(=O)[C@H](CC(C)C)NC(=O)c1ccc(NC[C@@H](N)CS)cc1-c1cccc2ccccc12` [GGTI298], in test [1] (Well no.=8076), the remaining activity at 1.25 µM stood at 106%. Also, the remaining activity at 3.75 µM in test [2] (Well no.=8076) was determined as 101%.

As for `CN(C)c1cccc(-c2c3c(=O)n(-c4ccccc4Cl)[nH]c3cc(=O)n2C)c1` [GKT137831], the remaining activity at 1.25 µM in test [1] (Well no.=9078) worked out at 96.8%. The remaining activity at 3.75 µM in test [2] (Well no.=9078) stood at 89.9%.

`N#CN=C(NCCCCCCOc1ccc(Cl)cc1)Nc1ccncc1` [GMX1778 (CHS828)]: the remaining activity at 1.25 µM in test [1] (Well no.=8486) was found to be 93.1%. The remaining activity at 3.75 µM in test [2] (Well no.=8486) was 95.9%.

For the compound `O=C(NCCO)c1cccc(-c2cc(Nc3ccc(OC(F)(F)F)cc3)ncn2)c1` [GNF-5], the remaining activity at 1.25 µM in test [1] (Well no.=5861) was 105%. Besides, in test [2] (Well no.=5861), the remaining activity at 3.75 µM was determined as 98.1%.

For `O=C1c2cc([N+](=O)[O-])ccc2-n2c1nc1ccccc1c2=O` [GNF-PF-3777], the remaining activity at 1.25 µM in test [1] (Well no.=8414) came out at 88.1%; in test [1] (Well no.=8695), 103%. Besides, the values for the remaining activity at 3.75 µM in test [2] (Well no.=8414) and in test [2] (Well no.=8695) were 78.5% and 99%, respectively.

`O=C(O)CC1CCC2(CC1)CCN(c1cc(OC(F)(F)F)ccc1Cl)CC2` [GPR120-IN-1]: the remaining activity at 1.25 µM in test [1] (Well no.=8485) was 104%. For the same compound, the remaining activity at 3.75 µM in test [2] (Well no.=8485) stood at 96.8%.

For the compound `OC[C@H]1O[C@@H](n2cnc3c(N[C@H]4CCC[C@@H]4O)ncnc32)[C@H](O)[C@@H]1O` [GR79236], the remaining activity at 1.25 µM in test [1] (Well no.=7817) worked out at 105%; in test [1] (Well no.=7852) it was 94.1%; in test [1] (Well no.=8455), 108%. Also, the remaining activity at 3.75 µM was 105% in test [2] (Well no.=7817), 93.8% in test [2] (Well no.=7852) and 110% in test [2] (Well no.=8455).

As for `COC(=O)N1CCN(C(=O)Cc2ccc(Cl)c(Cl)c2)C(CN2CCCC2)C1` (stereo not drawn) [GR-89696 fumarate], the remaining activity at 1.25 µM in test [1] (Well no.=462) was determined as 101%. The remaining activity at 3.75 µM in test [2] (Well no.=462) stood at 99.8%.

With `CC(C)(C)[C@H]1CC[C@H](N(Cc2ccc(C(=O)NCCC(=O)O)cc2)C(=O)Nc2ccc(OC(F)(F)F)cc2)CC1` [GRA Ex-25], the remaining activity at 1.25 µM in test [1] (Well no.=6180) is 103%. For the same compound, the remaining activity at 3.75 µM in test [2] (Well no.=6180) is 106%.

As for `NCC(=O)N[C@@H](CCCN=C(N)N)C(=O)NCC(=O)N[C@@H](CC(=O)O)C(=O)N[C@@H](CO)C(=O)N1CCC[C@H]1C(=O)O` [GRGDSP (TFA)], the remaining activity at 1.25 µM in test [1] (Well no.=7558) came out at 102%. Besides, the remaining activity at 3.75 µM in test [2] (Well no.=7558) was 109%.

`Nc1cccc(-c2cc3c(Oc4cccc(O)c4)ncnc3[nH]2)c1` [GSK3b Inhibitor XII, TWS119]: the remaining activity at 1.25 µM in test [1] (Well no.=2608) was found to be 97.8%. Besides, in test [2] (Well no.=2608), the remaining activity at 3.75 µM turned out to be 95.8%.

`CC(C)(C)S(=O)(=O)c1ccc2nccc(Nc3n[nH]c4ccc(F)cc34)c2c1` [GSK583]: the remaining activity at 1.25 µM in test [1] (Well no.=6206) was determined as 101%. Besides, the remaining activity at 3.75 µM in test [2] (Well no.=6206) came to 94.3%.

Consider `COc1cccc(-n2c(=O)[nH]c3cc(Cl)n(-c4ccc(-c5cccc(OC)c5O)cc4)c3c2=O)c1` [GSK621], for which the remaining activity at 1.25 µM in test [1] (Well no.=8626) stood at 101%. The remaining activity at 3.75 µM in test [2] (Well no.=8626) came to 99.7%.

For the compound `COC(=O)c1sccc1S(=O)(=O)Nc1ccc(Nc2ccccc2)cc1OC` [GSK0660], the remaining activity at 1.25 µM in test [1] (Well no.=5869) worked out at 111%. Further, the remaining activity at 3.75 µM in test [2] (Well no.=5869) turned out to be 109%.

For `CCS(=O)(=O)c1ccc(CC(=O)Nc2cc(Cl)c(-c3ccccc3OC(F)(F)F)c(Cl)c2)cc1` [GSK805], in test [1] (Well no.=8657), the remaining activity at 1.25 µM stood at 103%. For the same compound, in test [2] (Well no.=8657), the remaining activity at 3.75 µM came out at 94.7%.

For `O=C(NCCS(=O)(=O)c1ccc(C(F)(F)F)cn1)c1ccc(Cl)cc1` [GSK3787], the remaining activity at 1.25 µM in test [1] (Well no.=5216) came to 91.7%. The remaining activity at 3.75 µM in test [2] (Well no.=5216) stood at 95.3%.

As to `CC(C)(C)OC(=O)CN(Cc1ccc(Cl)cc1)Cc1ccc([N+](=O)[O-])s1` [GSK4112], the remaining activity at 1.25 µM in test [1] (Well no.=5910) was found to be 97.7%. Moreover, the remaining activity at 3.75 µM in test [2] (Well no.=5910) came to 96%.

For `COc1ccc(S(=O)(=O)Nc2c(C)cc(C)cc2C)cc1` [GSK137647A], the remaining activity at 1.25 µM in test [1] (Well no.=7757) was 103%. Also, the remaining activity at 3.75 µM in test [2] (Well no.=7757) was found to be 103%.

For the compound `COc1cccc(Nc2c(C(N)=O)cnc3c(C)cc(S(=O)(=O)c4cccc(C(=O)N(C)C)c4)cc23)c1` [GSK256066], the remaining activity at 1.25 µM in test [1] (Well no.=5300) was 95.5%. Moreover, the remaining activity at 3.75 µM in test [2] (Well no.=5300) turned out to be 98.4%.

Turning to `C[C@@H](Oc1cc(-n2cnc3ccc(CN4CCN(C)CC4)cc32)sc1C(N)=O)c1ccccc1C(F)(F)F` [GSK461364], the remaining activity at 1.25 µM in test [1] (Well no.=5146) was determined as 102%. Also, the remaining activity at 3.75 µM in test [2] (Well no.=5146) amounted to 103%.

Consider `O=C(/C=C/c1ccc(Cl)cc1)N1CCC2(CC1)CN(Cc1ccc(Cl)c(Cl)c1)C(=O)O2` [GSK682753A], for which, in test [1] (Well no.=7054), the remaining activity at 1.25 µM was determined as 107%. In test [2] (Well no.=7054), the remaining activity at 3.75 µM was 101%.

Regarding `CCn1c(-c2nonc2N)nc2c(C#CC(C)(C)O)ncc(OC[C@H]3CCCNC3)c21` [GSK690693], in test [1] (Well no.=3041), the remaining activity at 1.25 µM amounted to 97.7%. Besides, the remaining activity at 3.75 µM in test [2] (Well no.=3041) turned out to be 94.4%.

With `O=C1NC(=O)/C(=C/c2ccc3nccc(-c4ccncc4)c3c2)S1` [GSK1059615], the remaining activity at 1.25 µM in test [1] (Well no.=5191) was determined as 104%. Further, in test [2] (Well no.=5191), the remaining activity at 3.75 µM turned out to be 99.2%.

As for `CCn1cc(-c2ccnc3[nH]c(-c4cccc(CN(C)C)c4)cc23)c(-c2ccc(NC(=O)N(C)C)cc2)n1` [GSK1070916], the remaining activity at 1.25 µM in test [1] (Well no.=5031) came out at 101%. For the same compound, the remaining activity at 3.75 µM in test [2] (Well no.=5031) is 99.8%.

For the compound `CC(C)c1noc(N2CCC(COc3ccc(-c4ccc(S(C)(=O)=O)cc4)nc3)CC2)n1` [GSK1292263], the remaining activity at 1.25 µM in test [1] (Well no.=5106) came out at 93.1%; in test [1] (Well no.=8539) it was 105%. Moreover, the remaining activity at 3.75 µM in test [2] (Well no.=5106) was found to be 97.1%; in test [2] (Well no.=8539) it was 104%.

On to `CNC(=O)c1c(F)cccc1Nc1nc(Nc2cc3c(ccn3C(=O)CN(C)C)cc2OC)nc2[nH]ccc12` [GSK1838705A], for which the remaining activity at 1.25 µM in test [1] (Well no.=5310) was 98%. In addition, in test [2] (Well no.=5310), the remaining activity at 3.75 µM is 92%.

For the compound `CCc1cc(Nc2nccc(-c3c(-c4ccc(OC)c(C(=O)Nc5c(F)cccc5F)c4)nc4ccccn34)n2)c(OC)cc1N1CCC(N2CCN(S(C)(=O)=O)CC2)CC1` [GSK1904529A], the remaining activity at 1.25 µM in test [1] (Well no.=5013) was found to be 89.7%. For the same compound, the remaining activity at 3.75 µM in test [2] (Well no.=5013) came to 89.5%.

As for `COc1ncc(-c2ccc3nccc(-c4ccnnc4)c3c2)cc1NS(=O)(=O)c1ccc(F)cc1F` [GSK2126458], the remaining activity at 1.25 µM in test [1] (Well no.=5308) was 95.7%. The remaining activity at 3.75 µM in test [2] (Well no.=5308) turned out to be 94.1%.

Take `CNc1nc(-c2ccc3c(N)n[nH]c3c2)cc(N2C[C@@H](C(=O)NC3CCCCC3)CC[C@H]2C)n1` [GSK2334470]: the remaining activity at 1.25 µM in test [1] (Well no.=5464) was found to be 94.9%. For the same compound, the remaining activity at 3.75 µM in test [2] (Well no.=5464) worked out at 101%.
